According to patent US11365425B2, “Resistant protein for use in herbicide, encoding gene and application thereof” (BEIJING DABEINONG BIOTECHNOLOGY CO., LTD., priority 2016, dated 2022):
Where two headings read alike, the source gives them in different places.

How the values were obtained:
[1] = test system: Arabidopsis thaliana T1 plants (At-MTHFR66); conditions: 560 g ae/ha dicamba (1 × dicamba) sprayed
From the text: (§1) Arabidopsis thaliana was first transformed with the MTHFR66 gene. T1 transformants were initially selected from the background of untransformed seeds using a glufosinate selection scheme. The plants that were transformed with the recombinant expression vector DBN111101 were Arabidopsis thaliana plants (At mMTHFR66) into which an optimized MTHFR66 nucleotide sequence located in the chloroplast was introduced, and the plants that were transformed with the recombinant expression vector DBN111101N were Arabidopsis thaliana plants (At MTHFR66) into which a natural MTHFR66 nucleotide sequence located in the chloroplast was introduced. […] Arabidopsis thaliana T1 plants (At-mMTHFR66) into which an optimized MTHFR66 nucleotide sequence was introduced, Arabidopsis thaliana T1 plants (At-MTHFR66) into which a natural MTHFR66 nucleotide sequence was introduced and wild-type Arabidopsis thaliana plants (18 days after sowing) were tested for the herbicide tolerance effect to dicamba.
(§2) Arabidopsis thaliana T1 plants into which an optimized MTHFR66 nucleotide sequence was introduced, Arabidopsis thaliana T1 plants into which a natural MTHFR66 nucleotide sequence was introduced and wild-type Arabidopsis thaliana plants were sprayed with dicamba (560 g ae/ha, 1-fold field concentration) and a blank solvent (water) respectively. Plants were counted for the tolerance situations 7 days and 14 days after spraying: those having a consistent growth status with the blank solvent (water) group after 7 days were classified as highly resistant plants, those having curled rosette leaves after 7 days were classified as moderately resistant plants, those still not capable of bolting after 14 days were classified as lowly resistant plants, and those dead after 14 days were classified as non-resistant plants. Since each Arabidopsis thaliana T1 plant was an independent transformation event, a significant difference in individual T1 responses could be expected at a given dose. The results were shown as Table 1 and FIG. 9.

[2] = test system: wild-type Arabidopsis thaliana plants; conditions: 560 g ae/ha dicamba (1 × dicamba) sprayed
From the text: as §1, §2

[3] = test system: Arabidopsis thaliana T1 plants (At-mMTHFR66); conditions: 560 g ae/ha dicamba (1 × dicamba) sprayed
From the text: as §1, §2

[4] = test system: wild-type maize plants (CK); conditions: 4480 g ae/ha dicamba (8 × dicamba), V5-V6 stage, 21 days after spraying
From the text: (§3) The maize plants into which the optimized MTHFR66 nucleotide sequence was introduced, the maize plants into which the natural MTHFR66 nucleotide sequence was introduced and wild-type maize plants (at V5-V6 stage) were respectively tested for the herbicide resistance effect to dicamba.
(§4) The maize plants into which the optimized MTHFR66 nucleotide sequence was introduced, the maize plants into which the natural MTHFR66 nucleotide sequence was introduced and wild-type maize T1 hybrid plants (at V5-V6 stage) were taken and sprayed with a dicamba herbicide (4480 g ae/ha, 8-fold field concentration) and a blank solvent (water) respectively. 21 days after spraying, the support root development situation was collected. A total of three strains (S1, S2 and S3) of Zm-mMTHFR66, a total of two strains (S4 and S5) of Zm-MTHFR66, and a total of 1 strain of wild type (CK) were taken; and 10-15 plants were selected from each strain and tested.

[5] = test system: maize plants (Zm-MTHFR66); conditions: 4480 g ae/ha dicamba (8 × dicamba), V5-V6 stage, 21 days after spraying
From the text: as §3, §4

[6] = test system: maize plants (Zm-mMTHFR66); conditions: 4480 g ae/ha dicamba (8 × dicamba), V5-V6 stage, 21 days after spraying
From the text: as §3, §4

[7] = Dicamba demethylation function of MTHFR66 protein in the presence of trace tetrahydrofolate; type: biochemical; conditions: 1 mM dicamba, 30° C., 1 hour
Method: […] The reaction solution was lyophilized, and then dissolved by adding 300 μl of methanol. The amount of the generated intermediate metabolite of dicamba, DCSA, was detected using high performance liquid chromatography (HPLC).

[8] = Determination of enzymatic activity of MTHFR66 protein (dicamba to DCSA, HPLC); type: biochemical
Method: Enzymatic reaction system (300 μL): containing 1 mM substrate (dicamba), 0.2 mg of MTHFR66, 1 mM tetrahydrofolate (THF) and a buffer system of Tris-HCl at a concentration of 100 mM (pH 8.0), which were reacted in a water bath at a temperature of 30° C. for 1 hour, then kept in boiling water for 1 min, after which the reaction was terminated. The reaction solution was lyophilized, and then dissolved by adding 300 μl of methanol. The amount of the generated intermediate metabolite of dicamba, 3,6-dichlorosalicylic acid (DCSA), was detected using high performance liquid chromatography (HPLC). An enzymatic activity unit is defined as: the amount of enzyme required for degradation of dicamba to generate 1 nmol of product DCSA at pH 8.0, at a temperature of 30° C. within 1 min, and is expressed as U.

[9] = Hydrolase functional determination and product identification of MTHFR66 protein; type: biochemical; conditions: absence of the electron acceptor NAD+
Method: Enzymatic reaction system (300 μL): containing 0.2 mg of MTHFR66, 1 mM 5-methyl-tetrahydrofolate (5-CH3—H4F) and a buffer system of Tris-HCl at a concentration of 100 mM (pH 8.0), which were reacted in a water bath at a temperature of 30° C. for 1 hour, then kept in boiling water for 1 min, after which the reaction was terminated. The reaction solution was lyophilized, dissolved by adding 300 μl of 0.1 mol/L KH2PO4 (pH 6.8, 1% ascorbic acid and 0.1% β-mercaptoethanol), filtered using a filter membrane (with a pore size of 0.22 μm), and detected using high performance liquid chromatography. Liquid chromatography conditions were: mobile phase: 0.05 mol/l KH2PO4 (pH 3.0):acetonitrile (90:10, V/V), Zorbax C218 ODS Spherex reversed phase column (5 μm, 4.6 mm×250 mm, Agilent, USA), column temperature of 23° C., UV-detector, with a detection wavelength of 298 nm, a sample injection volume of 20 μl, and a flow rate of 1.0 mL/min. Quantification was performed by peak area according to the external standard method.
Metabolites were identified through HPLC-MS (high performance liquid chromatography-mass spectrum) under the conditions as follows: mobile phase: 0.05 mol/l KH2PO4 (pH 3.0):acetonitrile (90:10, V/V), Zorbax XDB-C18, 5 cm×0.46 cm, 1.8 mm reversed phase column (5 μm, 4.6 mm×250 mm, Agilent, USA), and a flow rate of 0.25 mL/min. […]

[10] = curled rosette leaves after 7 days
[11] = growth consistent with water group after 7 days
[12] = not capable of bolting after 14 days

COc1c(Cl)ccc(Cl)c1C(=O)O [dicamba, 3,6-dichloro-o-anisic acid]
Moderately resistant (number of plants) [1, 10]: 3
Non-resistant (number of plants) ([1]; dead after 14 days): 19
Highly resistant (number of plants) [1, 11]: 0
Lowly resistant (number of plants) [1, 12]: 2
Moderately resistant (number of plants) [2, 10]: 0
Non-resistant (number of plants) ([2]; dead after 14 days): 22
Highly resistant (number of plants) [2, 11]: 0
Lowly resistant (number of plants) [2, 12]: 0
Moderately resistant (number of plants) [3, 10]: 18
Non-resistant (number of plants) ([3]; dead after 14 days): 5
Highly resistant (number of plants) [3, 11]: 0
Lowly resistant (number of plants) [3, 12]: 0
Proportion of normally developed support root [4]: 0%
Support root abnormally developed (number of plants) [4]: 16
Support root normally developed (number of plants) [4]: 0
Proportion of normally developed support root ([5]; strain S4 (Zm-MTHFR66)): 16.67%
Support root abnormally developed (number of plants) ([5]; strain S4 (Zm-MTHFR66)): 10
Support root normally developed (number of plants) ([5]; strain S4 (Zm-MTHFR66)): 2
Proportion of normally developed support root ([5]; strain S5 (Zm-MTHFR66)): 30.77%
Support root abnormally developed (number of plants) ([5]; strain S5 (Zm-MTHFR66)): 9
Support root normally developed (number of plants) ([5]; strain S5 (Zm-MTHFR66)): 4
Proportion of normally developed support root ([6]; strain S1 (Zm-mMTHFR66)): 92.31%
Support root abnormally developed (number of plants) ([6]; strain S1 (Zm-mMTHFR66)): 1
Support root normally developed (number of plants) ([6]; strain S1 (Zm-mMTHFR66)): 12
Proportion of normally developed support root ([6]; strain S2 (Zm-mMTHFR66)): 90.91%
Support root abnormally developed (number of plants) ([6]; strain S2 (Zm-mMTHFR66)): 1
Support root normally developed (number of plants) ([6]; strain S2 (Zm-mMTHFR66)): 10
Proportion of normally developed support root ([6]; strain S3 (Zm-mMTHFR66)): 83.33%
Support root abnormally developed (number of plants) ([6]; strain S3 (Zm-mMTHFR66)): 2
Support root normally developed (number of plants) ([6]; strain S3 (Zm-mMTHFR66)): 10

B1: MTHFR66 protein: herbicide resistant protein, methyltetrahydrofolate reductase, amino acid sequence SEQ ID NO: 2 (289 amino acids) (protein, listed as Sphingomonas paucimobilis)
chain: MGSPVMAIDCDSVPDNLVHCFSIEMTGKDIDALQAAAPLLPPGTSVAVTFLPGENYETRIAACKAVRDLGFEPMPHFSARRIQDEAEFHDFLHAVVAEAKVRRCFVIAGDAAEPEGPYADSMQLIASGAFEAAGIDLIGVAGHPEGHPNMTAGEATAVLRAKTDEIERRGMAALIVTQFTFDAARTLDWLAEVRQAGIDVPVLLGVPGPAGIKTLLRFAARCGVGASASVLSKYGISIGHLLGSAGPDRFVDALRAGIGEQHGHVRLHFYPFGGLDKTARWIADYARKH
demethylation of dicamba to DCSA ([7]; in the presence of 0.01 mM tetrahydrofolate): can demethylate dicamba to generate DCSA
demethylation of dicamba to DCSA ([7]; in the presence of 0.5 mM of tetrahydrofolate): can fully demethylate 1 mM dicamba to generate DCSA
DCSA generated within 1 hour ([8]; 1 mM dicamba, 0.2 mg MTHFR66, 1 mM THF, Tris-HCl pH 8.0, 30° C., 1 hour): 0.15 mM
specific enzymatic activity ([8]; U = enzyme generating 1 nmol DCSA from dicamba at pH 8.0, 30° C. within 1 min): 3.75 U/mg
product of 5-methyl-tetrahydrofolate metabolism (HPLC-MS) [9]: can hydrolyze 5-methyl-tetrahydrofolate to tetrahydrofolate
transformation of 5-methyl-tetrahydrofolate (HPLC) ([9]; 1 mM 5-methyl-tetrahydrofolate, 30° C., 1 hour): can transform 5-methyl-tetrahydrofolate to other substances
